Assay results reported in patent publication US20230416247A1, “DRUG-LIKE MOLECULES AND METHODS FOR THE THERAPEUTIC TARGETING OF MICRORNA-21” (University of Washington, priority 2020, published 2023).

How the values were obtained:
[1] = system: mature miR-10b in AGS cells; experiment: qRT-PCR of mature miR-10b in AGS cells; type: cell-based, human; conditions: 10 nmoles, 48 hours, relative to DMSO control
Procedure: FIGS. 14A-14D compare levels of mature miR-10b and pre-miR-10b measured in gastric adenocarcinoma (AGS) (FIGS. 14A and 14B, respectively) and pancreatic cancer cell line (ASPC 1) (FIGS. 14C and 14D, respectively), normalized to internal controls (U6 or U8 snRNA), in the presence of 10 nmoles of palbociclib (a negative control not expected to directly affect miRNA levels) and compounds −0045 and −0052, 48 hours after incubation, relative to DMSO control, and measured by standard qRT-PCR. We notice that levels of pre-miR-10b are very low in both cell lines, rendering the data very uncertain. Statistically significant changes are labeled with asterisks.
In order to investigate whether inhibition was specific to miR-21, levels of mature miR-10b and pre-miR-10b were examined in the same cell lines (FIGS. 14A-14D); this is another oncogenic microRNA implicated in metastasis. […]
(§1) Quantitative real time PCR analysis. […] RNA concentration was assessed with the NanoDrop ND-1000 spectrophotometer (ThermoFisher Scientific). […] Expression of miR-21 was assessed utilizing the TaqMan microRNA assay (Applied Biosystems). […] All experiments were performed in triplicate, with all samples normalized to the internal controls and relative expression levels calculated using the 2^ΔΔCt method.

[2] = system: miR-16, miR-28, miR-182 in gastric (AGS) cells; experiment: qRT-PCR of miR-16, miR-28, miR-182 in AGS cells; type: cell-based, human; conditions: 24-72 hours post incubation, vs DMSO
Procedure: Levels of each microRNA were measured at different times post incubation (24-72 hours) by standard qRT-PCR, normalized to internal controls (U6 or U8 snRNA), in both gastric (AGC) and pancreatic (ASPC1) cell lines. Levels of the microRNA are generally the same, within experimental uncertainty, in the absence (DMSO) or presence of compound −0052 (30).
FIGS. 15A-15F show the levels of mature miR-16, miR-28, and miR-182 are not consistently affected by the compounds in both gastric (AGS) and pancreatic (ASPC1) cell lines, over multiple time scales (24-72 hours), relative to control where DMSO was added, but no compound.
Cell line maintenance. Using the Cancer Cell Line Encyclopedia (CCLE), in-house cancer cell lines were screened to identify cancer and tissue types with varying levels of miR-21 expression. Experiments were performed using the human-derived cell lines AGS (gastric cancer) and AsPC-1 (pancreatic cancer). […]
as §1

Question: How did the “reduction of levels of mature miR-10b” value [1] turn out when `O=c1[nH]c(Nc2ccc(N3CCNCC3)cn2)nc2cnccc12` [Compound 30] was run?
Answer: about 2 fold

Question: And the “cellular levels of miR-16, miR-28, miR-182” value [2]?
Answer: does not affect cellular levels
